# According to PMC7584622, “Sensing of autoinducer-2 by functionally distinct receptors in prokaryotes” (Nature Communications, 2020):
# Where “and” joins values, the source holds several entries; their conditions need not be identical. Equal entries are not always repeated.
# How the values were obtained:
# [1] = target: T1, PctA-LBD (Pseudomonas aeruginosa, UniProt G3XD24); experiment: ITC binding to PctA-LBD; set-up: species or system P. aeruginosa; settings: 700 μM DPD/AI-2 into 70 μM PctA-LBD (WT); 20 °C; normal conditions; mean ± s.d. of three in text/figure, single experiments in source data
# T1 construct: Amino acids 30-278 and 36-360 of PctA and TlpQ, respectively; His6 (N, cleaved yes); made in house; host or cells: E. coli BL21(DE3) (pET-28a derivative)
# T1 sequence (G3XD24 30-278): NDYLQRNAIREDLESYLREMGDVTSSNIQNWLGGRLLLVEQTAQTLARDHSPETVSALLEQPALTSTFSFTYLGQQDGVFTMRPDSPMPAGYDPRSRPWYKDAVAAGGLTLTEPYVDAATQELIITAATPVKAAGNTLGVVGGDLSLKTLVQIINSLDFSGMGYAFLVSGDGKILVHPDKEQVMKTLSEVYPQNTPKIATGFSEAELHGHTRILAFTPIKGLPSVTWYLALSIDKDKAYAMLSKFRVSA
# [2] = target: T2, KinD-LBD (Bacillus subtilis, UniProt O31671); experiment: ITC binding to KinD-LBD; set-up: species or system B. subtilis; settings: 700 μM DPD/AI-2 into 70 μM KinD-LBD
# T2 construct: the LBD of HK KinD from B. subtilis; His6 (N, cleaved yes); made in house; host or cells: E. coli BL21(DE3) (pET-28a derivative)
# T2 sequence (O31671 37-250): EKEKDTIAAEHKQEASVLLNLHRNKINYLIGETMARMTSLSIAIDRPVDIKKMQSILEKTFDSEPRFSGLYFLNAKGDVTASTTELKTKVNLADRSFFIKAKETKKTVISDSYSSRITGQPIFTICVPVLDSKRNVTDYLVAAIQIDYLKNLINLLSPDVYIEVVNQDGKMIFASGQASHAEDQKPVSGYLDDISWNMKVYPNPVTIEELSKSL
# [3] = target: rpHK1S-Z16-LBD (Rhodopseudomonas palustris, UniProt Q6N3S7); experiment: ITC binding to rpHK1S-Z16-LBD; set-up: species or system R. palustris; settings: 700 μM DPD/AI-2 into 70 μM rpHK1S-Z16-LBD
# rpHK1S-Z16-LBD, sequence (Q6N3S7 entry or part of it): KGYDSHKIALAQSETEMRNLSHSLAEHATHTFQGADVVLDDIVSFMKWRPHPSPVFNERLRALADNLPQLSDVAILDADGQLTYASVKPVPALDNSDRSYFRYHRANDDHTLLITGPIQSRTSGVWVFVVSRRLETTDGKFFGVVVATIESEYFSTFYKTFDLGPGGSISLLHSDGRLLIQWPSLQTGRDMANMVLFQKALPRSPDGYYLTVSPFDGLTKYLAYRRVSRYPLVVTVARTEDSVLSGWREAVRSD
# [4] = target: T3, PctA-LBD M111A (Pseudomonas aeruginosa, UniProt G3XD24, M111A); experiment: biochemical; assay type: binding; settings: PctA-LBD M111A 70 μM; DPD/AI-2 700 μM
# T3 construct: Amino acids 30-278 and 36-360 of PctA and TlpQ, respectively; His6 (N, cleaved yes); made in house; host or cells: E. coli BL21(DE3) (pET-28a derivative)
# T3 sequence (G3XD24 30-278 M111A): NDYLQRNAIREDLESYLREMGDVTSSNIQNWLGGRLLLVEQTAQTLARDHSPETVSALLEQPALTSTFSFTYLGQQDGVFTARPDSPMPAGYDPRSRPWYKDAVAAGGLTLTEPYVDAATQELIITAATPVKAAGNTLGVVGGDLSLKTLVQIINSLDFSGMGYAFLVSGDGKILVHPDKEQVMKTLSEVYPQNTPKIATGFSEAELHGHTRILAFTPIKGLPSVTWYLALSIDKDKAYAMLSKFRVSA
# [5] = target: T4, PctA-LBD R126A (Pseudomonas aeruginosa, UniProt G3XD24, R126A); experiment: biochemical; assay type: binding; settings: PctA-LBD R126A 70 μM; DPD/AI-2 700 μM
# T4 construct: Amino acids 30-278 and 36-360 of PctA and TlpQ, respectively; His6 (N, cleaved yes); made in house; host or cells: E. coli BL21(DE3) (pET-28a derivative)
# T4 sequence (G3XD24 30-278 R126A): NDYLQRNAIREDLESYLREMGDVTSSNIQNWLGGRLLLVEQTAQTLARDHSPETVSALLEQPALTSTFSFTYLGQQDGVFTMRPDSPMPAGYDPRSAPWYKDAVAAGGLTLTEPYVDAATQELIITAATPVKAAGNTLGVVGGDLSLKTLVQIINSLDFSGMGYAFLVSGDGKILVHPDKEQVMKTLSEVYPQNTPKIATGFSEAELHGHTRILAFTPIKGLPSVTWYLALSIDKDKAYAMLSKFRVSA
# [6] = target: T5, PctA-LBD W128A (Pseudomonas aeruginosa, UniProt G3XD24, W128A); experiment: biochemical; assay type: binding; settings: PctA-LBD W128A 70 μM; DPD/AI-2 700 μM
# T5 construct: Amino acids 30-278 and 36-360 of PctA and TlpQ, respectively; His6 (N, cleaved yes); made in house; host or cells: E. coli BL21(DE3) (pET-28a derivative)
# T5 sequence (G3XD24 30-278 W128A): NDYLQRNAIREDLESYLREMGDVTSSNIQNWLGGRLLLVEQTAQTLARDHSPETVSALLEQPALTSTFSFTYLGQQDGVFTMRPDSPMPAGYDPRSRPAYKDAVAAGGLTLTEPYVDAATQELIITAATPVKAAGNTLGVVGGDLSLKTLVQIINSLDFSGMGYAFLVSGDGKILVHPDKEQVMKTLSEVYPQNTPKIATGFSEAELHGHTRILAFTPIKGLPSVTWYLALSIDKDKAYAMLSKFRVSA
# [7] = target: T6, PctA-LBD Y144A (Pseudomonas aeruginosa, UniProt G3XD24, Y144A); experiment: biochemical; assay type: binding; settings: PctA-LBD Y144A 70 μM; DPD/AI-2 700 μM
# T6 construct: Amino acids 30-278 and 36-360 of PctA and TlpQ, respectively; His6 (N, cleaved yes); made in house; host or cells: E. coli BL21(DE3) (pET-28a derivative)
# T6 sequence (G3XD24 30-278 Y144A): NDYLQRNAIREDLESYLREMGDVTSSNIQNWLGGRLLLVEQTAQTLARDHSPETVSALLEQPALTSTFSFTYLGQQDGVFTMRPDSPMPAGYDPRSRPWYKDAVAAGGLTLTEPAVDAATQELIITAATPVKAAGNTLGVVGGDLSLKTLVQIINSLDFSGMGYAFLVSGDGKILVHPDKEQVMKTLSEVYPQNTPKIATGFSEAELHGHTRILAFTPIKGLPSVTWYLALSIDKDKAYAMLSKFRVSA
# [8] = target: T7, PctA-LBD D146A (Pseudomonas aeruginosa, UniProt G3XD24, D146A); experiment: biochemical; assay type: binding; settings: PctA-LBD D146A 70 μM; DPD/AI-2 700 μM
# T7 construct: Amino acids 30-278 and 36-360 of PctA and TlpQ, respectively; His6 (N, cleaved yes); made in house; host or cells: E. coli BL21(DE3) (pET-28a derivative)
# T7 sequence (G3XD24 30-278 D146A): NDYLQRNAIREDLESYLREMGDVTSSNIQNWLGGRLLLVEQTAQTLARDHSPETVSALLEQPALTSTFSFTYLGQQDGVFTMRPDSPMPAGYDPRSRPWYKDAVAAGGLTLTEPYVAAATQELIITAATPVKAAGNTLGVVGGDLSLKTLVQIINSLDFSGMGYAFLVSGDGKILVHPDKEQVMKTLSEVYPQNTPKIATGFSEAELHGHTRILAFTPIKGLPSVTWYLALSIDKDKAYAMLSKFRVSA
# [9] = target: T8, PctA-LBD A147F (Pseudomonas aeruginosa, UniProt G3XD24, A147F); experiment: biochemical; assay type: binding; settings: PctA-LBD A147F 70 μM; DPD/AI-2 700 μM
# T8 construct: Amino acids 30-278 and 36-360 of PctA and TlpQ, respectively; His6 (N, cleaved yes); made in house; host or cells: E. coli BL21(DE3) (pET-28a derivative)
# T8 sequence (G3XD24 30-278 A147F): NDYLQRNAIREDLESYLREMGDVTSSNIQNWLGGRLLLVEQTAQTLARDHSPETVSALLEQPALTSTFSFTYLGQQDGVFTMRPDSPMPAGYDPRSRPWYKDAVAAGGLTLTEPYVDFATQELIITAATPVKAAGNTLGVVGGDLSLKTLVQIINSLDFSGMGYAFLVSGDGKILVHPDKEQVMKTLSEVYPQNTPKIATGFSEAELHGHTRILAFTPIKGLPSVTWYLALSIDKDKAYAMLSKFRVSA
# [10] = target: T9, PctA-LBD D173A (Pseudomonas aeruginosa, UniProt G3XD24, D173A); experiment: biochemical; assay type: binding; settings: PctA-LBD D173A 70 μM; DPD/AI-2 700 μM
# T9 construct: Amino acids 30-278 and 36-360 of PctA and TlpQ, respectively; His6 (N, cleaved yes); made in house; host or cells: E. coli BL21(DE3) (pET-28a derivative)
# T9 sequence (G3XD24 30-278 D173A): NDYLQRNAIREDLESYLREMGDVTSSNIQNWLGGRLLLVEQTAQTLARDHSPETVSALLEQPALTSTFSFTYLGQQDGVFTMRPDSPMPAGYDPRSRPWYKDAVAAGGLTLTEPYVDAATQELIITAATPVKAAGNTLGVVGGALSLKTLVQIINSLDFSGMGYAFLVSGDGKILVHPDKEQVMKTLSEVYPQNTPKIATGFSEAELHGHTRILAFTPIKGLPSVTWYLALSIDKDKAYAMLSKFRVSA
# [11] = target: LsrB; settings: established receptor LsrB; cited from earlier work
# [12] = target: PctB-LBD (Pseudomonas aeruginosa, UniProt Q9HW91); experiment: ITC binding to PctB-LBD; settings: 700 μM DPD/AI-2 into 70 μM PctB-LBD, minor heats, not certain whether they reflect binding
# PctB-LBD, sequence (Q9HW91 32-276): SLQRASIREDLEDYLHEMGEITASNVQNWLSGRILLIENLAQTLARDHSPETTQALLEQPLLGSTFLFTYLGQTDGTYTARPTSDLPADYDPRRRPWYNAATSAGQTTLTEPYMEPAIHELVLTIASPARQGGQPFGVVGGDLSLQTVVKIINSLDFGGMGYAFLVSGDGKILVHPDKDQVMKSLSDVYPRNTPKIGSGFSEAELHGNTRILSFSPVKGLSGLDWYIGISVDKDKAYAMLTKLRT
# Method: (§1) ITC experiments were performed at 20 °C using a Nano ITC Standard Volume isothermal calorimeter (TA Instruments, New Castle, DE). […] The stirring speed was 200 r.p.m. and 25 injections were used each experiment. Three independent experiments were performed for each sample. […] ITC data were analyzed and fit with a one-site independent binding model using the NanoAnalyze software version 3.4 provided by the manufacturer, with the heat of dilution subtracted from the experimental titrations before data analysis.
# [13] = target: PctC-LBD (Pseudomonas aeruginosa, UniProt Q9HW93); experiment: ITC binding to PctC-LBD; settings: 700 μM DPD/AI-2 into 70 μM PctC-LBD, minor heats, not certain whether they reflect binding
# PctC-LBD, sequence (Q9HW93 32-279): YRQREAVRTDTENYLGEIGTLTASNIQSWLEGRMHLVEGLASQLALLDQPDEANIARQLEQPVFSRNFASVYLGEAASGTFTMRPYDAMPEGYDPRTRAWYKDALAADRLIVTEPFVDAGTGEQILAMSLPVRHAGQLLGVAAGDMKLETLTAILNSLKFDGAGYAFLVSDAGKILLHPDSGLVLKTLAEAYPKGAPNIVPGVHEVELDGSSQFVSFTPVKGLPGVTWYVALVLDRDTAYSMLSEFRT
# Method: as §1
# [14] = tested on: P. aeruginosa PAO1; experiment: crystal violet quantification of biofilm formation; settings: 100 nM DPD/AI-2, 37 °C, 48 h
# Method: Biofilms were stained with crystal violet and quantified using optical density measurement after incubation at 37 °C for 48 h. Data are mean ± s.e.m. of five independent experiments. b Quantification of biofilm formation by P. aeruginosa strains from confocal imaging. […] Images were reconstructed using the Imaris 9.0 software package (Bitplane, AG) (Supplementary Fig. 6) and biofilm biovolumes were quantified using COMSTAT (www.comstat.dk). Biovolumes were calculated from three biological replicates and each biological replicate was derived from an average of five confocal images.
# For crystal violet quantification of biofilm formation, overnight cultures of relevant strains of P. aeruginosa were diluted with TSB medium to an OD600 of 0.05, and 190 μl aliquots of the diluted cells were inoculated into each well of a 96-well microtiter plate (cat# 220400, Zhejiang Sorfa Life Science Research Co., Ltd., China). […] After incubation at 37 °C for 48 h without shaking, culture supernatant was removed and the wells were washed twice with phosphate-buffered saline (PBS). Cells adhering to the wells were stained with 0.1% (w/v) crystal violet for 15 min and then washed three times with PBS. The bacteria-bound dye was dissolved in 200 μl of 95% ethanol and the absorbance was determined at 590 nm.
# [15] = tested on: P. aeruginosa PAO1; experiment: confocal laser-scanning microscopy of static biofilms (biovolume, COMSTAT); settings: 100 nM DPD/AI-2
# Method: Biofilms were stained with crystal violet and quantified using optical density measurement after incubation at 37 °C for 48 h. […] Images were reconstructed using the Imaris 9.0 software package (Bitplane, AG) (Supplementary Fig. 6) and biofilm biovolumes were quantified using COMSTAT (www.comstat.dk). Biovolumes were calculated from three biological replicates and each biological replicate was derived from an average of five confocal images.
# For confocal laser-scanning microscopy and image analysis of static biofilms, overnight cultures of P. aeruginosa strains carrying pME6032-mCherry were diluted with TSB medium to an OD600 of 0.01 (~2 × 10^7 CFU ml^−1). […] The cultures were incubated at 37 °C under static conditions and biofilms were visualized using a Revolution XD laser-scanning confocal microscope (Andor, Belfast, Northern Ireland) after 1, 10, and 19 h. The excitation/emission wavelength for mCherry was 568/590 nm. Images were reconstructed using the Imaris 9.0 software package (Bitplane, AG) and the biovolumes were calculated using COMSTAT 2.1[46] plugin in ImageJ software (version 1.48). Biovolumes were measured and calculated from three biological replicates and each biological replicate was derived from an average of five confocal images.
compound,measurement,setting,value
"CC(=O)C(=O)C(O)CO (centres unmarked) [DPD/AI-2, 4,5-dihydroxy-2,3-pentanedione]",Kd,[1],0.12 µM and 0.16 µM and 0.13 µM
same,Kd,[2],0.12 µM and 0.16 µM and 0.15 µM
same,Kd,[3],0.13 µM and 0.19 µM and 0.21 µM
same,Kd,[4],14 µM and 21 µM and 17 µM
same,Kd,[5],49 µM and 33 µM and 41 µM
same,Kd,[6],25 µM and 24 µM and 18 µM
same,Kd,[7],16 µM and 14 µM and 12 µM
same,Kd,[8],39 µM and 30 µM and 31 µM
same,Kd,[9],11 µM and 10 µM and 12 µM
same,Kd,[10],12 µM and 14 µM and 13 µM and 10 µM
same,Kd,[11],0.19 to 0.81 µM
same,Kd,[12],205 µM and 176 µM and 163 µM
same,Kd,[13],94 µM and 118 µM and 86 µM
same,OD590 (crystal violet biofilm),[14]; strain WT(Vector),3.71 and 3.92 and 4.21 and 4.32 and 4.12
same,OD590 (crystal violet biofilm),[14]; strain ΔpctA(Vector),2.92 and 3.14 and 3.21 and 2.99 and 3.31
same,OD590 (crystal violet biofilm),[14]; strain ΔpctAΔtlpQ(Vector),2.53 and 2.64 and 2.49 and 2.62 and 2.12
same,OD590 (crystal violet biofilm),[14]; strain ΔpctAΔtlpQ(pctA),3.05 and 3.43 and 3.56 and 3.32 and 3.18
same,OD590 (crystal violet biofilm),[14]; strain ΔpctAΔtlpQ(pctB),2.31 and 2.73 and 2.24 and 2.53 and 2.77
same,OD590 (crystal violet biofilm),[14]; strain ΔpctAΔtlpQ(tlpQ),3.41 and 3.66 and 3.44 and 3.21 and 3.40
same,OD590 (crystal violet biofilm),[14]; strain ΔtlpQ(Vector),3.21 and 3.31 and 3.58 and 3.67 and 3.42
same,Biovolume of P. aeruginosa,"[15]; WT, 1 h",28364 μm3 mm-2 and 23058 μm3 mm-2 and 27608 μm3 mm-2
same,Biovolume of P. aeruginosa,"[15]; WT, 10 h",1281908 μm3 mm-2 and 1109100 μm3 mm-2 and 1052160 μm3 mm-2
same,Biovolume of P. aeruginosa,"[15]; WT, 19 h",3128446 μm3 mm-2 and 3141281 μm3 mm-2 and 3321156 μm3 mm-2
same,Biovolume of P. aeruginosa,"[15]; ΔpctA, 1 h",25418 μm3 mm-2 and 25743 μm3 mm-2 and 24604 μm3 mm-2
same,Biovolume of P. aeruginosa,"[15]; ΔpctA, 10 h",609991 μm3 mm-2 and 657748 μm3 mm-2 and 721040 μm3 mm-2
same,Biovolume of P. aeruginosa,"[15]; ΔpctA, 19 h",1305959 μm3 mm-2 and 1192157 μm3 mm-2 and 1109432 μm3 mm-2
same,Biovolume of P. aeruginosa,"[15]; ΔpctAΔtlpQ, 1 h",24520 μm3 mm-2 and 23099 μm3 mm-2 and 23881 μm3 mm-2
same,Biovolume of P. aeruginosa,"[15]; ΔpctAΔtlpQ, 10 h",372013 μm3 mm-2 and 288390 μm3 mm-2 and 355734 μm3 mm-2
same,Biovolume of P. aeruginosa,"[15]; ΔpctAΔtlpQ, 19 h",111554 μm3 mm-2 and 108961 μm3 mm-2 and 114758 μm3 mm-2
same,Biovolume of P. aeruginosa,"[15]; ΔtlpQ, 1 h",22029 μm3 mm-2 and 31306 μm3 mm-2 and 26285 μm3 mm-2
same,Biovolume of P. aeruginosa,"[15]; ΔtlpQ, 10 h",645081 μm3 mm-2 and 690688 μm3 mm-2 and 715157 μm3 mm-2
same,Biovolume of P. aeruginosa,"[15]; ΔtlpQ, 19 h",1292148 μm3 mm-2 and 1288991 μm3 mm-2 and 1359959 μm3 mm-2
